Experimental data taken from US6683084B1, “Use of 2-amino purine derivatives for the treatment and prophylaxis of human herpes virus 6 infections” (Novartis International Pharmaceutical Ltd., priority 1993, dated 2004).

Test system: HHV-6 strain 7.29
Experiment: Evaluation of PCV against HHV-6 in human cord blood cells (% infected cells by immunofluorescence)
Format: cell-based, human herpesvirus 6
Protocol: An assay method involving the inhibition of a cytopathic effect in human cord blood cells is conducted at a dose range of 0.01 μM-100 μM. The general procedure is as described in Chapter 23 of ‘Human Herpesvirus; Epidemiology, Molecular Biology and Clinical Pathology—Conference Proceedings, Ablashi D. V. (Ed).
^aDilutions of the compounds were added 1 hr after viral inoculation of human cord blood. The % infected cells was measured by anti-complement immunofluorescence (ACIF). All numbers are averages of results of cord blood from 3 donors and triplicate readings were performed on each sample. Each reading represents actual counting of 3 fields.
Human mononuclear cells were isolated from umbilical cord blood and inoculated in triplicate with the test virus. One hour later, duplicate dilutions of the compound were added, resulting in 0, 5, 10, 50, or 100 μM final concentrations. After 3-6 days, cellls were removed and tested for the presence of virus by indirect immunofluorescence (IFA) using type specific monoclonal antibodies. Three fields of 100 cells each were read from each sample.

Nc1nc2c(ncn2CCC(CO)CO)c(=O)[nH]1 [PCV, penciclovir]
inhibition at 5 µM (Human betaherpesvirus 6, 144 h, PCV 5 μM, Day 6, read-out: % Inhib Day 6): -5%
inhibition at 10 µM (Human betaherpesvirus 6, 144 h, PCV 10 μM, Day 6, read-out: % Inhib Day 6): -7%
inhibition at 50 µM (Human betaherpesvirus 6, 144 h, PCV 50 μM, Day 6, read-out: % Inhib Day 6): 12%
inhibition at 100 µM (Human betaherpesvirus 6, 144 h, PCV 100 μM, Day 6, read-out: % Inhib Day 6): 29%
% Inf Day 4 (PCV 5 μM, Day 4, compound added 1 hr after viral inoculation): 19%
% Inf Day 6 (PCV 5 μM): 42%
% Inf Day 4 (PCV 10 μM, Day 4): 20%
% Inf Day 6 (PCV 10 μM): 43%
% Inf Day 6 (PCV 50 μM): 35%
% Inf Day 6 (PCV 100 μM): 38%
